In US20250388605A1, “HETEROBIFUNCTIONAL COMPOUNDS AND METHODS OF TREATING DISEASE” (Halda Therapeutics OpCo, Inc., priority 2022, published 2025):

What was measured:
BRD4-BD1 = biological target: T1, BRD4-BD1 (Homo sapiens, UniProt O60885); assay: Binding affinity to BRD4-BD1 (bromoKdELECT assay); settings: 11-point 3-fold dilution series
T1 construct: made in house; host or cells: T7 phage grown in an E. coli host derived from the BL21 strain
Procedure: (§1) Compounds were tested using a bromoKdELECT assay. T7 phage strains displaying bromodomains were grown in parallel in 24-well blocks in an E. coli host derived from the BL21 strain. E. coli were grown to log-phase and infected with T7 phage from a frozen stock (multiplicity of infection=0.4) and incubated with shaking at 32° C. until lysis (90-150 minutes). The lysates were centrifuged (5,000×g) and filtered ([…]) to remove cell debris. Streptavidin-coated magnetic beads were treated with biotinylated small molecule or acetylated peptide ligands for 30 minutes at room temperature to generate affinity resins for bromodomain assays. The liganded beads were blocked with excess biotin and washed with blocking buffer (SeaBlock (Pierce), 1% BSA, 0.05% Tween 20, 1 mM DTT) to remove unbound ligand and to reduce nonspecific phage binding. Binding reactions were assembled by combining bromodomains, liganded affinity beads, and test compounds in 1× binding buffer (17% SeaBlock, 0.33×PBS, 0.04% Tween 20, 0.02% BSA, 0.004% Sodium azide, 7.4 mM DTT). Test compounds were prepared as 1000× stocks in 100% DMSO. Kds were determined using an 11-point 3-fold compound dilution series with one DMSO control point. All compounds for Kd measurements are distributed by acoustic transfer (non-contact dispensing) in 100% DMSO. The compounds were then diluted directly into the assays such that the final concentration of DMSO was 0.09%. All reactions performed in polypropylene 384-well plates. Each was a final volume of 0.02 ml. The assay plates were incubated at room temperature with shaking for 1 hour and the affinity beads were washed with wash buffer (1×PBS, 0.05% Tween 20). The beads were then resuspended in elution buffer (1×PBS, 0.05% Tween 20, 2 M non-biotinylated affinity ligand) and incubated at room temperature with shaking for 30 minutes. The bromodomain concentration in the eluates was measured by qPCR.

[1] = tested on: T-Rex 293 cell line SC3 cells having increased expression of androgen receptor protein due to exposure to doxycycline; assay: Cellular growth inhibition, T-Rex 293 SC3 cells with doxycycline (increased androgen receptor expression), CellTiter-Glo; type: cell-based; settings: T-Rex 293 SC3 cells with 10 ng/mL doxycycline (increased androgen receptor expression), 72 hours, CellTiter-Glo 2.0
Outline: (§2)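 Growth inhibition is measured in an inducible AR-expressing T-Rex 293 clone, SC3, cultured with or without 10 ng/mL doxycycline in hormone-depleted medium. Test compounds are applied for 72 hours. GI50 values derive from CellTiter-Glo 2.0 signal fitted by four-parameter regression.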

BRD4-BD2 = biological target: T2, BRD4-BD2 (Homo sapiens, UniProt O60885); assay: Binding affinity to BRD4-BD2 (bromoKdELECT assay); settings: 11-point 3-fold dilution series
T2 construct: made in house; host or cells: T7 phage grown in an E. coli host derived from the BL21 strain
Procedure: as §1, with “2 μM” for “2 M”

[2] = tested on: T-Rex 293 cell line SC3 cells lacking increased expression of androgen receptor protein; assay: Cellular growth inhibition, T-Rex 293 SC3 cells without doxycycline (no increased androgen receptor expression), CellTiter-Glo; type: cell-based; settings: T-Rex 293 SC3 cells not exposed to doxycycline (no increased androgen receptor expression), 72 hours
Outline: as §2

VCaP cells = assay: Cellular growth inhibition assay for VCaP cells, CellTiter-Glo; type: cell-based, human; settings: 72 hours
Outline: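 GI50 values come from four-parameter curve fits of luminescence data normalized to a zero baseline. Compound, in medium with 0.5% DMSO, was added one day after plating and left for 72 h before CellTiter-Glo 2.0 addition.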

T47D cells = assay: Cellular Growth Inhibition Assay for T47D Cells (CellTiter-Glo); type: cell-based, human; settings: 72 hours
Outline: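 GI50 values derive from four-parameter regression of CellTiter-Glo 2.0 luminescence, using zero luminescence as baseline. Human breast cancer T47D cells (3000/well; DMEM, 10% FBS, 0.2 units/mL insulin) were exposed for 72 h to compound dilutions at 0.5% DMSO, with dosing starting 24 h after seeding.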

Kd (BRD4-BD1) [nM] | Kd (BRD4-BD2) [nM] | GI50 (VCaP cells; Homo sapiens) [nM] | GI50 (T47D cells; Homo sapiens) [nM] | GI50 (T47D cells) [nM] | GI50 (VCaP cells) [nM] | Structure (SMILES) | GI50 [1] [nM] | GI50 [2] [nM]
50 to 500 | < 50 |  |  |  |  | CCS(=O)(=O)Nc1ccc(Oc2cccc(OCCCN3CCN(CCCN(C)c4ncc(C(=O)N[C@H]5C(C)(C)[C@H](Oc6ccc(C#N)c(Cl)c6)C5(C)C)cn4)CC3)c2)c(-c2cn(C)c(=O)c3[nH]ccc23)c1 [Compound I-5] | < 500 | 500 to 1500
50 to 500 | < 50 | < 500 |  |  |  | CCS(=O)(=O)Nc1ccc(Oc2cccc(OCCOCCOCCOCCOCCOCCOCCOC3CCN(c4ncc(C(=O)N[C@H]5C(C)(C)[C@H](Oc6ccc(C#N)c(Cl)c6)C5(C)C)cn4)CC3)c2)c(-c2cn(C)c(=O)c3[nH]ccc23)c1 [Compound I-9] | < 500 | 500 to 1500
50 to 500 | < 50 | < 500 |  |  |  | CCS(=O)(=O)Nc1ccc(Oc2cccc(OCCCN3CCN(CCCOC4CCN(c5ncc(C(=O)N[C@H]6C(C)(C)[C@H](Oc7ccc(C#N)c(Cl)c7)C6(C)C)cn5)CC4)CC3)c2)c(-c2cn(C)c(=O)c3[nH]ccc23)c1 [Compound I-10] | < 500 | < 500
> 2500 | 500 to 2500 | < 500 |  |  |  | Cn1cc(-c2cc(NS(=O)(=O)C3CC3)ccc2Oc2cccc(OCCOC3CCN(c4ncc(C(=O)N[C@H]5C(C)(C)[C@H](Oc6ccc(C#N)c(Cl)c6)C5(C)C)cn4)CC3)c2)c2cc[nH]c2c1=O [Compound I-48, N-((1r, 3r)-3-(3-chloro-4-cyanophenoxy)-2,2,4,4-tetramethylcyclobutyl)-2-(4-(2-(3-(4-(cyclopropanesulfonamido)-2-(6-methyl-7-oxo-6,7-dihydro-1H-pyrrolo[2,3-c]pyridin-4-yl)phenoxy)phenoxy)ethoxy)piperidin-1-yl)pyrimidine-5-carboxamide] | < 500 | > 3000
 |  | < 500 | < 500 |  |  | CCS(=O)(=O)Nc1ccc(Oc2ccc(N3CC(CC4CCN(c5ncc(C(=O)N[C@H]6C(C)(C)[C@H](Oc7ccc(C#N)c(Cl)c7)C6(C)C)cn5)CC4)C3)cc2)c(-c2cn(C)c(=O)c3[nH]ccc23)c1 [Compound I-337] | < 500 | > 3000
 |  | > 3000 | 500 to 1500 |  |  | Cn1cc(-c2cc(C(C)(C)O)ccc2Oc2ccc(N3CC(CC4CCN(c5ccc(C(=O)N[C@H]6C(C)(C)[C@H](Oc7ccc(C#N)c(Cl)c7)C6(C)C)nc5)CC4)C3)cc2)c2cc[nH]c2c1=O [Compound I-338] | > 3000 | > 3000
 |  | > 3000 | < 500 |  |  | Cn1cc(-c2cc(C(C)(C)O)ccc2Oc2ccc(OC[C@@H]3CCCN(c4ncc(C(=O)N[C@H]5C(C)(C)[C@H](Oc6ccc(C#N)c(Cl)c6)C5(C)C)cn4)C3)cc2)c2cc[nH]c2c1=O [Compound I-339] | < 500 | > 3000
 |  |  |  | < 500 | > 3000 | Cn1cc(-c2cc(C(C)(C)O)ccc2Oc2ccc(OC[C@@H]3CCCN(c4cnc(C(=O)N[C@H]5C(C)(C)[C@H](Oc6ccc(C#N)c(Cl)c6)C5(C)C)cn4)C3)cc2)c2cc[nH]c2c1=O [Compound I-340] | > 3000 | > 3000
 |  |  |  | < 500 | < 500 | Cn1cc(-c2cc(C(C)(C)O)ccc2Oc2ccc(CCC3CCN(c4cnc(C(=O)N[C@H]5C(C)(C)[C@H](Oc6ccc(C#N)c(Cl)c6)C5(C)C)cn4)CC3)nc2)c2cc[nH]c2c1=O [Compound I-341] | < 500 | < 500
 |  |  |  | < 500 | < 500 | Cn1cc(-c2cc(C(C)(C)O)ccc2Oc2ccc(N3CC4(CCCN(c5cnc(C(=O)N[C@H]6C(C)(C)[C@H](Oc7ccc(C#N)c(Cl)c7)C6(C)C)cn5)C4)C3)cc2)c2cc[nH]c2c1=O [Compound I-342] | < 500 | > 3000
 |  |  |  | < 500 | < 500 | Cn1cc(-c2cc(C(C)(C)O)ccc2Oc2ccc(N3CC4(CCCN(c5ncc(C(=O)N[C@H]6C(C)(C)[C@H](Oc7ccc(C#N)c(Cl)c7)C6(C)C)cn5)C4)C3)cc2)c2cc[nH]c2c1=O [Compound I-343] | < 500 | > 3000
 |  | > 3000 | 500 to 1500 |  |  | Cn1cc(-c2cc(C(C)(C)O)ccc2-n2cc(N3CC(CC4CCN(c5ncc(C(=O)NC6C(C)(C)C(Oc7ccc(C#N)c(Cl)c7)C6(C)C)cn5)CC4)C3)ccc2=O)c2cc[nH]c2c1=O (stereo not shown) [Compound I-344, N-[3-(3-chloro-4-cyano-phenoxy)-2,2,4,4-tetramethyl-cyclobutyl]-2-[4-[[1-[1-[4-(1-hydroxy-1-methyl-ethyl)-2-(6-methyl-7-oxo-1H-pyrrolo [2,3-c]pyridin-4-yl)phenyl]-6-oxo-3-pyridyl]azetidin-3-yl]methyl]-1-piperidyl]pyrimidine-5-carboxamide] | > 3000 | > 3000
 |  | < 500 | < 500 |  |  | Cn1cc(-c2cc(C(C)(C)O)ccc2Oc2ccc(N3CC(CC4CCN(c5ncc(C(=O)N[C@H]6C(C)(C)[C@H](Oc7ccc(C#N)c(Cl)c7)C6(C)C)cn5)CC4)C3)cn2)c2cc[nH]c2c1=O [Compound I-345, N-[3-(3-chloro-4-cyano-phenoxy)-2,2,4,4-tetramethyl-cyclobutyl]-2-[4-[[1-[6-[4-(1-hydroxy-1-methyl-ethyl)-2-(6-methyl-7-oxo-1H-pyrrolo [2,3-c]pyridin-4-yl)phenoxy]-3-pyridyl]azetidin-3-yl]methyl]-1-piperidyl]pyrimidine-5-carboxamide] | < 500 | > 3000
 |  | < 500 | < 500 |  |  | Cn1cc(-c2cc(C(C)(C)O)ccc2Oc2ccc(N3CC(CC4CCN(c5cnc(C(=O)N[C@H]6C(C)(C)[C@H](Oc7ccc(C#N)c(Cl)c7)C6(C)C)cn5)CC4)C3)cn2)c2cc[nH]c2c1=O [Compound I-346] | < 500 | > 3000
 |  | < 500 | < 500 |  |  | Cn1cc(-c2cc(C(C)(C)O)ccc2Oc2ccc(N3CCC(CC4CN(c5ncc(C(=O)N[C@H]6C(C)(C)[C@H](Oc7ccc(C#N)c(Cl)c7)C6(C)C)cn5)C4)CC3)cc2)c2cc[nH]c2c1=O [Compound I-350] | < 500 | < 500
 |  |  |  | < 500 | < 500 | Cn1cc(-c2cc(C(C)(C)O)ccc2Oc2ccc(N3CC(C4CC5(C4)CN(c4ncc(C(=O)N[C@H]6C(C)(C)[C@H](Oc7ccc(C#N)c(Cl)c7)C6(C)C)cn4)C5)C3)cc2)c2cc[nH]c2c1=O [Compound I-351] | < 500 | < 500
